Assay: Binding affinity opioid receptor

SMILES	IC50
Cc1cc(O)cc(C)c1[C@H](C)[C@H](N)C(=O)N[C@H]1C(=O)NCC(=O)N[C@@H](Cc2ccccc2)C(=O)N[C@@H](C(=O)O)C(C)(C)SSC1(C)C [(4S,7S,13S)-13-[(2S,3S)-2-Amino-3-(4-hydroxy-2,6-dimethyl-phenyl)-butyrylamino]-7-benzyl-3,3,14,14-tetramethyl-6,9,12-trioxo-1,2-dithia-5,8,11-triaza-cyclotetradecane-4-carboxylic acid]	0.722 µM
Cc1cc(O)cc(C)c1[C@H](C)[C@H](N)C(=O)N[C@H](C)C(=O)N[C@@H](Cc1ccccc1)C(=O)N[C@@H](CC(=O)O)C(=O)N[C@H](C(=O)N[C@H](C(=O)NCC(N)=O)C(C)C)C(C)C [(S)-3-((S)-2-{(R)-2-[(2S,3S)-2-Amino-3-(4-hydroxy-2,6-dimethyl-phenyl)-butyrylamino]-propionylamino}-3-phenyl-propionylamino)-N-{(S)-1-[(S)-1-(carbamoylmethyl-carbamoyl)-2-methyl-propylcarbamoyl]-2-methyl-propyl}-succinamic acid]	17.1 µM

From BindingDB's records for doi:10.1021/jm00038a004 (University of Arizona, 1994)
